Legend:
[1] = tested on: MDA-MB-435 established primary tumors; experiment: MDA-MB-435 established primary tumor xenograft model; type: in vivo, mouse; parameters: reduction in activated TAFs assessed by aSMA signal / reduction in VEGF signal versus vehicle-treated tumors / reduction in SDF-1/CXCL12 signal / reduction in LOXL2 signal: concentration or dose not given beside the values
Procedure: To provide growing tumor tissue stock for subsequent orthotopic implantation, five- to six-week-old nude mice (NCr nu/nu) were injected subcutaneously with 2×10^6 MDA-MB-435-GFP cells (Anticancer, Inc., San Diego, Calif.) on the right flank. For this purpose, cultures of MDA-MB-435-GFP cells were harvested and dissociated by trypsinization, washed three times with cold serum-containing medium, and then kept on ice until injection. Cells were injected into the subcutaneous space of the flank of the animal in a total volume of 0.1 ml, within 30 min of harvesting. The nude mice were sacrificed to harvest tumor tissue 4 to 6 weeks after tumor cell injection for surgical orthotopic implantation (SOI) of tumor fragments.
Tumor pieces (˜1 mm^3), extracted from subcutaneously-growing GFP-expressing breast tumors, were implanted by surgical orthotopic implantation (SOI) on the breast of female nude mice (NCr nu/nu). Treatments with AB0023 (anti-LOXL2 monoclonal antibody), M64 (anti-LOX monoclonal antibody) and vehicle (all via intraperitoneal injection) and with Taxotere (by intravenous injection) were initiated when the average primary tumor volume reached 75 mm^3. Mice were administered the antibodies at a dose of 30 mg/kg twice a week for 28 days and Taxotere, at 10 mg/kg, was administered once a week for 3 weeks.
Body weight and tumor size were recorded weekly. At the conclusion of the study, mice were sacrificed by cervical dislocation after being anesthetized with carbon dioxide. Primary breast tumors were imaged, harvested, cut in half symmetrically and snap-frozen for histological and immunohistochemical analyses.
The solutions used for the immunohistochemistry (IHC) protocols were obtained from Biocare Medical (Concord, Calif.) unless otherwise stated. All procedures were performed at room temperature. Slides were fixed with 4% PFA for 10 minutes and were subsequently treated with Peroxidazed-1 (Biocare Medical, Concord, Calif.) for 5 minutes. Then, the slides were background blocked with SNIPER (Biocare Medical, Concord, Calif.) for 10 minutes. Primary antibody (2-5 ug/ml final concentration) was diluted in Da Vinci Green Universal Diluent and applied to slides for 30 minutes. Slides were then rinsed in PBS-Tween-20. The Mach2 polymer kit was used for antigen detection by adding rabbit probe for 30 minutes. DAB chromagen was added to the slides for 3-5 minutes, then slides were rinsed once with deionized water. The slides were then counter-stained with hematoxylin, followed by dehydration with graded alcohol. The slides were mounted with entellan mounting medium (Electron Microscopy Sciences, Hatfield, Pa.).

MCF7 cells = experiment: Induction of EMT-like phenotype by LOXL2-containing conditioned media (rhodamine-phalloidin staining); type: cell-based; conditions: MDA-MB231 or Hs-578t conditioned media; BAPN up to 2 mM
Procedure: Cells were seeded at 80% confluency, in an 8-chambered slide, 24 hours prior to the day of staining. After 24 hours, media was aspirated and the chambers were washed with PBS. Cells were then fixed with 4% Parafomaldehyde (PFA) for 20 minutes at room temperature and then permeabilized with 0.5% Saponin (JT Baker, Phillipsburg, N.J.) for 5 minutes at room temperature. Cells were then stained for 15 minutes at room temperature with a 1:100 dilution of rhodamine phalloidin (Invitrogen, Carlsbad, Calif.). Slides were mounted with Vectashield (Vector Laboratories, Burlingame, Calif.).
MCF7 or SW620 cells were seeded at 50,000 cells per well of an 8-chambered culture slide in HGDMEM (high-glucose Dulbecco's modified Eagle's medium containing 4.5 g/l glucose)+10% FBS, 2 mM L-glutamine, 24 hours prior to being exposed to conditioned medium (CM). 500 uls of fresh conditioned medium from MDA MB 231 cells was added to the chambers containing MCF7 cells. The cells were incubated with the CM for 48-96 hours. Conditioned medium from MCF7 or SW620 cells was used as a negative control. After 48-96 hours incubation with CM, the cells were stained with rhodamine-phalloidin as described above.

[2] = tested on: MDA-MB-435 established primary tumors; experiment: MDA-MB-435 established primary tumor xenograft model; type: in vivo, mouse; conditions: independent study; AB0023 5 mg/kg twice per week, BAPN 100 mg/kg daily
[3] = tested on: purified recombinant human LOXL2; experiment: Amplex Red assay of LOXL2 enzymatic activity; type: biochemical
Procedure: A mouse anti-human LOXL2 antibody (AB0023) was obtained by immunization with full-length LOXL2 protein and purified by SEC-HPLC (Tosoh TSKGEL G3000SWXL 7.8×300). Analytical size exclusion chromatography was used to assess antibody stability and purity. Purified AB0023 was run on SDS-PAGE Coomassie (Invitrogen BT 4-12% Gels) reducing and non-reducing gels to assess purity. Potency was examined by ELISA to determine Kd, and effect on LOXL2 enzymatic activity was determined using an Amplex Red Assay (Molecular Probes/Invitrogen, Carlsbad, Calif.). Antibody concentration was measured by absorbance at 280 nm using an Extinction Coefficient Abs 0.1% of 1.4. Identity was assayed by isoelectric focusing (Invitrogen pH 3-10 IEF Gels). For safety analysis, endotoxin levels were measured at a sensitivity range of 0.01-1 EU/ml (Charles River EndoSafe PTS).

[4] = molecular target: T1, lysyl oxidase-like 3 (LOXL3) (UniProt P58215 26-753, limits assumed); experiment: Western blot probed with AB0023 [Cont. 2) panel m]
T1 construct: Member of 'other lysyl oxidase-type enzymes'; also called LOR-2
T1 sequence (looked up): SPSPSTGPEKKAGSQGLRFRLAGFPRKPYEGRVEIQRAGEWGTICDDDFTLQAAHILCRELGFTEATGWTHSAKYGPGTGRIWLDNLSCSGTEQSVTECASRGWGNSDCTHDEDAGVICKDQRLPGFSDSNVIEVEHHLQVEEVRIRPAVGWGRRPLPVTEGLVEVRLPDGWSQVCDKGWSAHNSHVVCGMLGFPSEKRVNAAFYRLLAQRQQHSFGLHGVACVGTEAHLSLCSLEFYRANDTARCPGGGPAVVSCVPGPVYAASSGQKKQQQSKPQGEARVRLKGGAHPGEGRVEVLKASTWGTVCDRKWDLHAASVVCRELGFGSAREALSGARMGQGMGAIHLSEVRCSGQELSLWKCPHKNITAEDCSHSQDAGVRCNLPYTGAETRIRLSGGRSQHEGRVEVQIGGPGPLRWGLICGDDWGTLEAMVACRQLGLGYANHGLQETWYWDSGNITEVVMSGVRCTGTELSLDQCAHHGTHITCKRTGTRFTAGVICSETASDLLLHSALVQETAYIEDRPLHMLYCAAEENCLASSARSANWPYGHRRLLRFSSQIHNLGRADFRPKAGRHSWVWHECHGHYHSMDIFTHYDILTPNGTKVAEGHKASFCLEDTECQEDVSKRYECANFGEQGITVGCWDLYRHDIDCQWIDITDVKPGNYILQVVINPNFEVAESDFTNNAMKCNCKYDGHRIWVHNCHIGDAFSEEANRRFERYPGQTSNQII

lysyl oxidase (LOX) = molecular target: T2, lysyl oxidase (LOX) (UniProt P28300 169-417, limits assumed); experiment: Western blot probed with AB0023 [Cont. 2) panel m]
T2 construct: Member of 'other lysyl oxidase-type enzymes'
T2 sequence (looked up): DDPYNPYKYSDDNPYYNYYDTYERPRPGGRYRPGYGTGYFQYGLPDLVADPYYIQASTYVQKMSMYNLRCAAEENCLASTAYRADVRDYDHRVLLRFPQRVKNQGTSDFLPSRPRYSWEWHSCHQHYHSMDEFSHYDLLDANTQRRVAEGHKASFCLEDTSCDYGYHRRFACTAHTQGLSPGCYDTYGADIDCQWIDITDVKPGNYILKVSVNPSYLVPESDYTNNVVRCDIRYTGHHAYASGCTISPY

[5] = molecular target: T3, lysyl oxidase-like 4 (LOXL4) (UniProt Q96JB6 25-756, limits assumed); experiment: Western blot probed with AB0023 [Cont. 2) panel m]
T3 construct: Member of 'other lysyl oxidase-type enzymes'
T3 sequence (looked up): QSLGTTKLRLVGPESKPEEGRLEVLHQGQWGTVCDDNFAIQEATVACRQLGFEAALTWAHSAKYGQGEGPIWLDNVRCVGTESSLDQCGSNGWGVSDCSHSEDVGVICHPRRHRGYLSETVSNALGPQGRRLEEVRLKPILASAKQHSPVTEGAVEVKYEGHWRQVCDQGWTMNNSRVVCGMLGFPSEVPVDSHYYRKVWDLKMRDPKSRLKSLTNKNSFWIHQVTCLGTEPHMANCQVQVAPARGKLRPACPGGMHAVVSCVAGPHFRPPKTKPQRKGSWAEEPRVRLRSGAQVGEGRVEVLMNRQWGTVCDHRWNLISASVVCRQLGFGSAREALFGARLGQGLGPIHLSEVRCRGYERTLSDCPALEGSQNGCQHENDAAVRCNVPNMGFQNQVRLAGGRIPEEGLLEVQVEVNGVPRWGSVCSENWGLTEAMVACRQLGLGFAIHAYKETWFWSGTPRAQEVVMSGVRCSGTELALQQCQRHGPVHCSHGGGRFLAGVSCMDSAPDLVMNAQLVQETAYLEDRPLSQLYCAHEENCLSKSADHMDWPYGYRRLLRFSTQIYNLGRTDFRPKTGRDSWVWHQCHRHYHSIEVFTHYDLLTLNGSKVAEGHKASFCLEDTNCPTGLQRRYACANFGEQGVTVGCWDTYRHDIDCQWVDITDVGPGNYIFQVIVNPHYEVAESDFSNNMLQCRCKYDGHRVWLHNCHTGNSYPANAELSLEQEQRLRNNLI

[6] = molecular target: T4, human lysyl oxidase-like 2 (LOXL2) (human, UniProt Q9Y4K0 26-774); experiment: cell-based or functional assay
T4 sequence (looked up): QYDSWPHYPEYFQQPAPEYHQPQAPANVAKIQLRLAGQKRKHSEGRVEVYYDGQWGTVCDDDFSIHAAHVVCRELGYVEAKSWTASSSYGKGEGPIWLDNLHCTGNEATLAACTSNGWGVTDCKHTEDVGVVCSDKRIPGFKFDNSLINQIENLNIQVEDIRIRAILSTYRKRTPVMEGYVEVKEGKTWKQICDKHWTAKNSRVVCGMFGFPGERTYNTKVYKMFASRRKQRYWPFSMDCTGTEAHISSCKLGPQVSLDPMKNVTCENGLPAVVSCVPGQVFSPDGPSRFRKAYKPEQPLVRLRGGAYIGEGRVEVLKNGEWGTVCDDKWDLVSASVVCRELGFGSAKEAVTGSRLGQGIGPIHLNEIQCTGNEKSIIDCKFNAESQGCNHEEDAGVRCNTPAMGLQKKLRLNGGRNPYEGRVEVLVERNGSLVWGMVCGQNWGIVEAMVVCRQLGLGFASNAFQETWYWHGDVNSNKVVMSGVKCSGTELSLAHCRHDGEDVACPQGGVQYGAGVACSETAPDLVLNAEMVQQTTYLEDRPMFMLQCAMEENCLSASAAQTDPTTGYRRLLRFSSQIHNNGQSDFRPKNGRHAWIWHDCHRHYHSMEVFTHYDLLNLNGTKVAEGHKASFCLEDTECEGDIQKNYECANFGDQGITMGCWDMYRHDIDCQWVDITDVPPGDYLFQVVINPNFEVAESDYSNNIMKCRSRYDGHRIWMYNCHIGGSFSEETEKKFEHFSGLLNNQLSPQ

CC(=O)O[C@@]12CO[C@@H]1C[C@H](O)[C@@]1(C)C(=O)[C@H](O)C3=C(C)[C@@H](OC(=O)[C@H](O)[C@@H](NC(=O)OC(C)(C)C)c4ccccc4)C[C@@](O)([C@@H](OC(=O)c4ccccc4)[C@H]21)C3(C)C [Taxotere, reference compound]
levels of Beclin-1 (autophagy) in tumor cells ([1]; mouse, in vivo): increased
reduction in Sirius red staining (crosslinked collagen, desmoplasia) ([1]; tumors harvested at day 39): No significant differences
reduction in activated TAFs assessed by aSMA signal ([1]; tumors harvested at day 39): No significant differences
reduction in tumor vasculature, CD31 signal ([1]; tumors harvested at day 39): 43%

N#CCCN [BAPN, beta-aminoproprionitrile, reference compound]
remodeling of the actin cytoskeleton induced by LOXL2-containing conditioned media (MCF7 cells): not inhibited
reduction in tumor vasculature, CD31 signal [2]: no reduction
reduction in tumor volume after 46 days [2]: 19%
mode of inhibition of LOXL2 [3]: competitive inhibitor
inhibition of LOXL2 enzymatic activity ([3]; in vitro): inhibited
IC50 for inhibition of LOXL2 (in words) ([3]; in vitro, FIG. 8 panel D): low nanomolar

B1: anti-LOXL2 monoclonal antibody AB0023 (antibody, V domains shown)
VH: QVQLQQSGAELVRPGTSVKVSCKASGYAFTYYLIEWVKQRPGQGLEWIGVINPGSGGTNYNEKFKGKATLTADKSSSTAYMQLSSLTSDDSAVYFCARNWMNFDYWGQGTTLTVSS
VL: DIVMTQAAPSVSVTPGESVSISCRSSKSLLHSNGNTYLYWFLQRPGQSPQFLIYRMSNLASGVPDRFSGSGSGTAFTLRISRVEAEDVGVYYCMQHLEYPYTFGGGTKLEIK
notes: Mouse monoclonal antibody from a hybridoma, raised against full-length LOXL2 and purified from ascites; also called mouse anti-human LOXL2 antibody; LOXL2-specific monoclonal antibody
binding result [4]: no binding
binding result (lysyl oxidase (LOX)): no binding
binding result [5]: no binding
IC50, HUVEC tube formation assay, FIG. 4 Panel I (mean total tubule length) [6]: 33.2 nM
apparent IC50 for inhibition of purified LOXL2 enzymatic activity [6]: ~30 nM

From patent US20110076272A1, “THERAPEUTIC METHODS AND COMPOSITIONS” (priority 2009, published 2011)
